Experimental findings from patent publication US20260109721A1, “IONIZABLE CATIONIC LIPIDS INCORPORATING SILICON: SYNTHESIS AND LNP FORMULATION” (priority 2023, published 2026) are described below.

SMILES strings stand for the structures.

Common to all, as to assay type: cell-based
Data set [1] has as its system HeLa cells. The experiment in a line: Cell viability assessment with MTT assay (Method B). Conditions: 24 h. The method, then: (§1) The synthesized lipids were tested in term of in vitro transfection efficacy and toxicity on HeLa cells. In order to perform the mentioned biological tests, appropriate LNPs had to be formulated from the synthesized lipids. The formulation technique was different in Method A and B. The particle size, polydispersity index (PDI) and zeta potential of resulting LNPs were determined by means of Dynamic Light Scattering technique (DLS). Prior to biological testing the encapsulation efficiency (EE) of the loaded LNPs was determined by using RiboGreen RNA assay. In case of Method A Luc mRNA while in case of Method B GFP mRNA was transfected into the cells. In parallel with the transfection experiments, toxicity of the investigated LNPs was determined, in case of Method A resazurin assay while in case of Method B MTT assay was used. Additionally, the toxicity of the lipids was investigated on HepG2 cells and IC50 values were determined.
• MEM (Sigma, cat #M5650-500 mL) • Fetal Bovine Serum, FBS (Sigma, cat #F7524-500 mL) • Thiazolyl Blue Tetrazolium Bromide, MTT (TCI Chemicals, cat #D0801-5G) • Solutions of the formulations (see “Preparation of GFP mRNA loaded LNP” protocol) • Dilutor: 10 mL MEM+0,036 mL ethanol • Phosphate buffered saline, PBS
• 1. Plate 10,000 HeLa cells per well in 96 well plate. […] Total 60 wells should be seeded. Incubate in MEM+10% FBS at 37° C. in a humidified atmosphere with 5% CO2 for 24 h. • 2. Examine under the microscope. Confluency must be at or nearly 80%. • 3. Gently remove the media (aspirate). Place 50 μL of the following formulations: • a) 6 wells with dilutor—negative control • b) 6 wells with Lipofectamine-50—positive control. • c) 6 wells with Lipofectamine-6—secondary positive control • d) 6 wells per formulations—test samples. • 4. Incubate plate for 1 hours at 37° C. • 5. Add 50 μL of MEM+20% FBS (which will become 10% upon dilution). • 6. […] Measure the absorbance of each well at 570 nm using a microplate reader. Measure the absorbance at a reference wavelength of 650 nm to subtract background absorbance. • 11. […]

In data set [2] the test system is HeLa cells. Put plainly: Transfection efficiency with GFP mRNA (Method B). Conditions: 24 h, GFP fluorescence. As to the method: as §1
In 1.5 mL eppendorf: • a) Place 2.9 uL of 0.33 ug/uL mRNA solution into Eppendorf tube • b) Add 1.94 μL of supplied ethanolic solution of tested lipid and immediately mix by working pipette up-and-down several times (work the solution up and down several times before transferring to saturate pipette tip with ethanol vapors) • c) Incubate for 15 minutes. • d) Add 536 μL of MEM. Mix the solution by vortexing. • e) Incubate for 30 minutes.
• MEM (Sigma, cat #M5650-500 mL) • Fetal Bovine Serum, FBS (Sigma, cat #F7524-500 mL) • Solutions of the formulations (see above) • Dilutor: 10 mL MEM+0,036 mL ethanol • Phosphate buffered saline, PBS
• 1. Fill the edge wells of a 96-well plate with 100 μL media. • 2. Plate 10,000 HeLa cells per well in 96 well plate. […] Total 60 wells should be seeded. Incubate in MEM+10% FBS at 37° C. in a humidified atmosphere with 5% CO2 for 24 h. • 3. Examine under the microscope. Confluency must be at or nearly 80%. • 4. Gently remove the media (aspirate). Place 50 μL of the following formulations: • a) 6 wells with dilutor—negative control • b) 6 wells with Lipofectamine-50—positive control. • c) 6 wells with Lipofectamine-6—secondary positive control • d) 6 wells per formulations—test samples. • 5. Incubate plate for 1 hours at 37° C. • 6. Add 50 μL of MEM+20% FBS (which will become 10% upon dilution). • 7. Place plates into the incubator at 37° C. in a humidified atmosphere with 5% CO2 for 23 h (total 24 hours of incubation). • 8. After 24 h, aspirate the media without disturbing the cells. Gently wash cells with 100 μL of warm PBS. Aspirate PBS. • 9. Add 100 μL of fresh PBS into washed cells and read GFP fluorescence on the plate reader. • 10. This can be followed with viability assessment with the MTT assay. Cell Viability Assessment with MTT Assay (Method B)

Data set [3] relates to HeLa cells. The experiment in a line: Cell viability assessment with resazurin assay (Method A). Conditions: human. The method in brief: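 Viability is given as percent of control metabolic activity: background-corrected resorufin fluorescence (ex 540, em 610 nm), with OptiMEM-only wells set to 100%. Resazurin at 0.025 mg/ml in DMEM/F12 with 10% FCS was applied to LNP-transfected HeLa cells for 50 min at 37 °C.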
(Resazurin is reduced to fluorescent resorufin, in cell work by metabolically active cells.)

In the case of `CCCCC/C=C\C/C=C\CCCCCCCCOC(CCCCCCC/C=C\C/C=C\CCCCC)O[Si](C)(C)OCCCCCCN(CCO)CCO` (stereo not drawn) [Example 48, (23Z,26Z)-13-((8Z,11Z)-heptadeca-8,11-dien-1-yl)-3-(2-hydroxyethyl)-11,11-dimethyl-10,12,14-trioxa-3-aza-11-siladotriaconta-23,26-dien-1-ol], in the data set on HeLa cells [1], the “Cell Viability %” value worked out at 51.5%. Moreover, in the data set on HeLa cells [2], the “Transfection 89 ng mRNA/well” value stood at 93448.3. For the same compound, the “Cell Viability % (Average metabolic rate over all doses, Resazurin)” value in the data set with HeLa cells [3] worked out at 99%.

Turning to `CCCCC/C=C\C/C=C\CCCCCCCCOC(CCCCCCC/C=C\C/C=C\CCCCC)O[Si](C)(C)OCCCCCCN(C)CCO` (stereo not drawn) [Example 56, (23Z,26Z)-13-((8Z,11Z)-heptadeca-8,11-dien-1-yl)-3,11,11-trimethyl-10,12,14-trioxa-3-aza-11-siladotriaconta-23,26-dien-1-ol], in the data set with HeLa cells [1], the “Cell Viability %” value was found to be 40.2%. In the data set with HeLa cells [2], the “Transfection 89 ng mRNA/well” value stood at 78375.2. Moreover, the “Cell Viability % (Average metabolic rate over all doses, Resazurin)” value in the data set with HeLa cells [3] is 93%.

Take `CCCCC/C=C\C/C=C\CCCCCCCCOC(CCCCCCC/C=C\C/C=C\CCCCC)O[Si](C)(C)OCCCCCCN1CCN(CCO)CC1` (stereo not drawn) [Example 58, 2-(4-((20Z,23Z)-10-((8Z,11Z)-heptadeca-8,11-dien-1-yl)-8,8-dimethyl-7,9,11-trioxa-8-silanonacosa-20,23-dien-1-yl)piperazin-1-yl)ethan-1-ol]: the “Cell Viability %” value with HeLa cells [1] is 52.1%. In addition, in the data set with HeLa cells [2], the “Transfection 89 ng mRNA/well” value stood at 50019.2. In addition, in the data set on HeLa cells [3], the “Cell Viability % (Average metabolic rate over all doses, Resazurin)” value is recorded as 97%.
